Where only a bound is given, the exact number is not on record here.

Consider 21 compounds from US9149475B2, “Protein kinase C inhibitors and uses thereof” (Rigel Pharmaceuticals, Inc., priority 2009, dated 2015).

In one test the test system is Human primary T cells. The experiment in a line: IL-2 ELISA, human primary T cell, anti-CD3+CD28+ (whole cell assay). The format is cell-based. The conditions noted are these: Homo sapiens, T-cell, 24 h, human primary T cells stimulated with anti-CD3 + anti-CD28, 24 hours. Here is the method:
(§1) Human primary T cells were prepared as follows. Whole blood was obtained from a healthy volunteer, mixed 1:1 with PBS, layered on to Ficoll Hypaque (Amersham Pharmacia Biotech, Piscataway, N.J., Catalog #17-1440-03) in 2:1 blood/PBS:ficoll ratio and centrifuged for 30 minutes at 4° C. at 1750 rpm. The cells at the serum:ficoll interface were recovered and washed twice with 5 volumes of PBS. These freshly isolated human peripheral blood mononuclear cells were cultured in Yssel's medium containing 40 U/mL IL2 in a flask pre-coated with 1 μg/mL αCD3 and 5 μg/mL αCD28 (Anti-Human CD3, BD Pharmingen Catalog #555336, Anti-Human CD28, Beckman Coulter Catalog #IM1376). The cells were stimulated for 3-4 days, then transferred to a fresh flask and maintained in RPMI (RPMI-1640 with L-Glutamine; Mediatech, Inc., Herndon Va., cat. #10-040-CM) with 10% FBS and 40 U/mL IL-2. The primary T-cells were then washed twice with PBS to remove the IL-2.
Human primary T cells (100,000 cells per well) were pre-incubated with or without test compound in Yssel's medium for 1 hr at 37° C. Cells were then stimulated by transferring them to round-bottom 96-well plates pre-coated with 1 μg/ml μCD3 and 5 μg/ml μCD28. For counter assay, cells were instead stimulated by adding 8× stock solutions of PMA and ionomycin in Yssels (for final concentrations of 0.5 ng/ml PMA and 0.1 μM ionomycin, both from Calbiochem). Cells were incubated at 37° C. for 24 hours before 100 μL supernatants were harvested for quantification of IL-2 by ELISA using Human IL-2 Duoset ELISA Kit from R and D Systems, Cat. #DY202E.
as §1, with “Human primary T cell isolation and culture: Human primary” for “Human primary”, “for 30 min at 4°” for “for 30 minutes at 4°”, “at the serum: ficoll interface were” for “at the serum:ficoll interface were”
Primary T cell stimulation and IL2 ELISA: Human primary T cells (100,000 cells per well) were pre-incubated with or without test compound in Yssel's medium for 1 hr at 37° C. Cells were then stimulated by transferring them to round-bottom 96-well plates pre-coated with 1 μg/ml αCD3 and 5 μg/ml αCD28. For counter assay, cells were instead stimulated by adding 8× stock solutions of PMA and ionomycin in Yssels (for final concentrations of 0.5 ng/ml PMA and 0.1 μM ionomycin, both from Calbiochem). Cells were incubated at 37° C. for 24 hours before 100 μL supernatants were harvested for quantification of IL-2 by ELISA using Human IL-2 Duoset ELISA Kit from R and D Systems, Cat. #DY202E.
The IC50 is the concentration at which inhibition is half-maximal. For `CC1(C)CC(Nc2nc(Nc3ccc(OC4CCN(CCOCc5ccccc5)CC4)c(F)c3)ncc2F)CC(C)(C)N1` [III-53, N2-(4-(1-(2-(benzyloxy)ethyl)piperidin-4-yloxy)-3-fluorophenyl)-5-fluoro-N4-(2,2,6,6-tetramethylpiperidin-4-yl)pyrimidine-2,4-diamine], the IC50 lay within 500 to 1000 nM.

For `Cc1nnnn1-c1cc(Nc2ncc(F)c(NC3CC(C)(C)N(C)C(C)(C)C3)n2)ccc1OC1CCN(C(C)C)CC1` [III-1, 5-fluoro-N2-(4-(1-isopropylpiperidin-4-yloxy)-3-(5-methyl-1H-tetrazol-1-yl)phenyl)-N4-(1,2,2,6,6-pentamethylpiperidin-4-yl)pyrimidine-2,4-diamine], the IC50 lay within 250 to 500 nM.

Take `Cc1ccc(C)n1-c1cc(Nc2ncc(F)c(NC3CC(C)(C)NC(C)(C)C3)n2)ccc1OC(F)F` [Compound I-5, N2-(4-(difluoromethoxy)-3-(2,5-dimethyl-1H-pyrrol-1-yl)phenyl)-5-fluoro-N4-(2,2,6,6-tetramethylpiperidin-4-yl)pyrimidine-2,4-diamine]: the concentration for half-maximal inhibition (IC50) lay within 500 to 1000 nM.

Take `CC(C)Oc1ncc(Nc2ncc(F)c(NC3CC(C)(C)N(C)C(C)(C)C3)n2)cc1-c1nnnn1C` [Compound I-126, 5-fluoro-N2-(6-isopropoxy-5-(1-methyl-1H-tetrazol-5-yl)pyridin-3-yl)-N4-(1,2,2,6,6-pentamethylpiperidin-4-yl)pyrimidine-2,4-diamine]: the IC50 was under 250 nM.

With `CC(C)Oc1ccc(Nc2ncc(F)c(NC3CC(C)(C)N(C)C(C)(C)C3)n2)cc1N(C)C(C)C` [III-66, 5-fluoro-N2-(4-isopropoxy-3-(isopropyl(methyl)amino)phenyl)-N4-(1,2,2,6,6-pentamethylpiperidin-4-yl)pyrimidine-2,4-diamine], the IC50 was over 1000 nM.

Consider `CN1C(C)(C)CC(Nc2nc(Nc3ccc4c(c3)OCC(CN3CCOCC3)O4)ncc2F)CC1(C)C` (stereo not drawn) [II-6, 5-fluoro-N2-(2,3-dihydro-2-(morpholinomethyl)benzo[b][1,4]dioxin-6-yl)-N4-(1,2,2,6,6-pentamethylpiperidin-4-yl)pyrimidine-2,4-diamine], for which the IC50 was over 1000 nM.

Take `Cc1nnnn1-c1cc(Nc2ncc(F)c(NC3CC(C)(C)N(C)C(C)(C)C3)n2)cnc1O` [Compound I-112, 5-(4-(1,2,2,6,6-pentamethylpiperidin-4-ylamino)-5-fluoropyrimidin-2-ylamino)-3-(5-methyl-1H-tetrazol-1-yl)pyridin-2-ol]: the IC50 was over 1000 nM.

As to `CC1(C)CC(Nc2nc(Nc3ccc(OC4CCN(CC(N)=O)CC4)c(OC(F)F)c3)ncc2F)CC(C)(C)N1` [III-36, 2-(4-(2-(Difluoromethoxy)-4-(5-fluoro-4-(2,2,6,6-tetramethylpiperidin-4-ylamino)pyrimidin-2-ylamino)phenoxy)piperidin-1-yl)acetamide], the half-inhibitory concentration (IC50) is over 1000 nM.

Turning to `CCOc1ncc(Nc2ncc(F)c(NC3CC(C)(C)N(C)C(C)(C)C3)n2)cc1OC(F)F` [Compound I-117, N2-(5-(difluoromethoxy)-6-ethoxypyridin-3-yl)-5-fluoro-N4-(1,2,2,6,6-pentamethylpiperidin-4-yl)pyrimidine-2,4-diamine], the half-maximal inhibitory concentration (IC50) is 250 to 500 nM.

As for `CC1(C)CC(Nc2nc(Nc3ccc(OC4CCN(CC(N)=O)CC4)c(F)c3)ncc2F)CC(C)(C)N1` [III-34, 2-(4-(2-Fluoro-4-(5-fluoro-4-(2,2,6,6-tetramethylpiperidin-4-ylamino)pyrimidin-2-ylamino)phenoxy)piperidin-1-yl)acetamide], the IC50 was over 1000 nM.

Regarding `CC1(C)CC(Nc2nc(Nc3cc(F)c(OC4CCOCC4)c(F)c3)ncc2F)CC(C)(C)N1` [III-26, N2-(3,5-difluoro-4-(tetrahydro-2H-pyran-4-yloxy)phenyl)-5-fluoro-N4-(2,2,6,6-tetramethylpiperidin-4-yl)pyrimidine-2,4-diamine], the IC50 lay within 500 to 1000 nM.

Take `CC1(C)CC(Nc2nc(Nc3ccc(-c4cccnc4)c(OC(F)F)c3)ncc2F)CC(C)(C)N1` [Compound I-63, N2-(3-(difluoromethoxy)-4-(pyridin-3-yl)phenyl)-5-fluoro-N4-(2,2,6,6-tetramethylpiperidin-4-yl)pyrimidine-2,4-diamine]: the IC50 was 250 to 500 nM.

`CC(C)Oc1ncc(Nc2ncc(C#N)c(NC3CC(C)(C)N(C)C(C)(C)C3)n2)cc1-c1nnnn1C1CC1` [Compound I-139, 2-(5-(1-cyclopropyl-1H-tetrazol-5-yl)-6-isopropoxypyridin-3-ylamino)-4-(1,2,2,6,6-pentamethylpiperidin-4-ylamino)pyrimidine-5-carbonitrile]: the concentration for half-maximal inhibition (IC50) is under 250 nM.

Regarding `CC1(C)CC(Nc2nc(Nc3cnc(OCCN4CCCC4)c(OC(F)F)c3)ncc2F)CC(C)(C)N1` [Compound I-143, N2-(5-(difluoromethoxy)-6-(2-(pyrrolidin-1-yl)ethoxy)pyridin-3-yl)-5-fluoro-N4-(2,2,6,6-tetramethylpiperidin-4-yl)pyrimidine-2,4-diamine], the 50% inhibitory concentration (IC50) is over 1000 nM.

With `CC1(C)CC(Nc2nc(Nc3cc(F)cc(OCCCn4cccc4)c3)ncc2F)CC(C)(C)N1` [Compound I-35, N2-(3-(3-(1H-pyrrol-1-yl)propoxy)-5-fluorophenyl)-5-fluoro-N4-(2,2,6,6-tetramethylpiperidin-4-yl)pyrimidine-2,4-diamine], the 50% inhibitory concentration (IC50) was in the range of 500 to 1000 nM.

For the compound `CN1C(C)(C)CC(Nc2nc(Nc3cc(OC(F)F)cc(C(F)(F)F)c3)ncc2F)CC1(C)C` [Compound I-107, N2-(3-(difluoromethoxy)-5-(trifluoromethyl)phenyl)-5-fluoro-N4-(1,2,2,6,6-pentamethylpiperidin-4-yl)pyrimidine-2,4-diamine], the IC50 fell in the range of 250 to 500 nM.

As to `CCOc1ncc(Nc2ncc(F)c(NC3CC(C)(C)NC(C)(C)C3)n2)cc1OC(F)F` [Compound I-118, N2-(5-(difluoromethoxy)-6-ethoxypyridin-3-yl)-5-fluoro-N4-(2,2,6,6-tetramethylpiperidin-4-yl)pyrimidine-2,4-diamine], the half-inhibitory concentration (IC50) was 250 to 500 nM.

As for `CC1(C)CC(Nc2nc(Nc3cc(F)c(OC(C)(C)CCN4CCCC4)c(F)c3)ncc2F)CC(C)(C)N1` [III-48, N2-(3,5-difluoro-4-(2-methyl-4-(pyrrolidin-1-yl)butan-2-yloxy)phenyl)-5-fluoro-N4-(2,2,6,6-tetramethylpiperidin-4-yl)pyrimidine-2,4-diamine], the IC50 was over 1000 nM.

With `Cc1ccn(-c2cccc(Nc3ncc(F)c(NC4CC(C)(C)N(C)C(C)(C)C4)n3)c2)n1` [Compound I-1, 5-fluoro-N2-(3-(3-methyl-1H-pyrazol-1-yl)phenyl)-N4-(1,2,2,6,6-pentamethylpiperidin-4-yl)pyrimidine-2,4-diamine], the half-inhibitory concentration (IC50) was over 1000 nM.

The test is the same for the next values; noted with them: human primary T cells stimulated with anti-CD3 + anti-CD28, 24 hours.
On to `CN1C(C)(C)CC(Nc2nc(Nc3ccc(F)c(-n4cnnn4)c3)ncc2C#N)CC1(C)C` [Compound I-73, 5-cyano-N2-[4-fluoro-3-(1H-tetrazol-1-yl)]phenyl-N4-(1,2,2,6,6-pentamethylpiperidin-4-yl)-2,4-pyrimidinediamine], for which the IC50 is under 250 nM.

As for `CCCc1nnnn1-c1cc(Nc2ncc(C(N)=O)c(NC3CC(C)(C)NC(C)(C)C3)n2)ccc1OC` [Compound I-76, 5-aminocarbonyl-N2-[4-methoxy-3-(5-propyl-1H-tetrazol-1-yl)]phenyl-N4-(2,2,6,6-tetramethylpiperidin-4-yl)-2,4-pyrimidinediamine], the half-maximal inhibitory concentration (IC50) is over 1000 nM.
